Laboratory results from patent publication US10308643B2, “Heterocyclic compound” (Takeda Pharmaceutical Company Limited, priority 2015, dated 2019).

Assays:
Type in all cases: biochemical
HDAC9 enzyme = biological target: T1, HDAC9 enzyme (Homo sapiens, UniProt Q9UKV0); assay: HDAC9 Enzyme Inhibitory Assay (HDAC-Glo class IIa); details: 1 μM test compound; wells without enzyme = 100% inhibition; read-out: HDAC9 inhibitory rate (%) (1 μM)
T1 construct: transducing full length HDAC9 gene into Sf-9 insect cells; made in house; host or cells: Sf-9 insect cells
Procedure, shortened: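 Full-length human HDAC9 from Sf-9 cells, Ni-NTA purified, preincubated with compound for 60 min at room temperature in Tris-HCl pH 7.5 buffer (MgCl2, KCl, NaCl, glutathione, Tween-20). HDAC-Glo class IIa substrate-developer added; luminescence read after 20 min, with no-enzyme wells defining 100% inhibition.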

HDAC1 enzyme = biological target: T2, HDAC1 enzyme (Homo sapiens, UniProt Q13547); assay: HDAC1/6 Enzyme Inhibitory Assay (HDAC-Glo I/II Assay kit), HDAC1; details: 1 μM test compound, wells without enzyme = 100% inhibition; for inhibition at 1 µM: read-out: HDAC1 inhibitory rate (%) (1 μM)
T2 construct: transducing full length HDAC1 and HDAC6 genes into Sf-9 insect cells; GST; purchased SignalChem; host or cells: Sf-9 insect cells
Procedure, shortened: (§1)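 Luminescence readout (HDAC-Glo I/II) after 20 min RT reaction of GST-purified full-length HDAC1 or HDAC6 (Sf-9 expressed) with substrate-developer; enzyme and compound preincubated 60 min RT; buffer 24 mM Tris-HCl pH 7.5, 0.6 mM glutathione, 0.01% Tween-20; no-enzyme wells = 100% inhibition.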

HDAC6 enzyme = biological target: T3, HDAC6 enzyme (Homo sapiens, UniProt Q9UBN7); assay: HDAC1/6 Enzyme Inhibitory Assay (HDAC-Glo I/II Assay kit), HDAC6; details: 1 μM test compound; wells without enzyme = 100% inhibition; read-out: HDAC6 inhibitory rate (%) (1 μM)
T3 construct: transducing full length HDAC1 and HDAC6 genes into Sf-9 insect cells; GST; purchased SignalChem; host or cells: Sf-9 insect cells
T3 sequence (Q9UBN7 1-1215): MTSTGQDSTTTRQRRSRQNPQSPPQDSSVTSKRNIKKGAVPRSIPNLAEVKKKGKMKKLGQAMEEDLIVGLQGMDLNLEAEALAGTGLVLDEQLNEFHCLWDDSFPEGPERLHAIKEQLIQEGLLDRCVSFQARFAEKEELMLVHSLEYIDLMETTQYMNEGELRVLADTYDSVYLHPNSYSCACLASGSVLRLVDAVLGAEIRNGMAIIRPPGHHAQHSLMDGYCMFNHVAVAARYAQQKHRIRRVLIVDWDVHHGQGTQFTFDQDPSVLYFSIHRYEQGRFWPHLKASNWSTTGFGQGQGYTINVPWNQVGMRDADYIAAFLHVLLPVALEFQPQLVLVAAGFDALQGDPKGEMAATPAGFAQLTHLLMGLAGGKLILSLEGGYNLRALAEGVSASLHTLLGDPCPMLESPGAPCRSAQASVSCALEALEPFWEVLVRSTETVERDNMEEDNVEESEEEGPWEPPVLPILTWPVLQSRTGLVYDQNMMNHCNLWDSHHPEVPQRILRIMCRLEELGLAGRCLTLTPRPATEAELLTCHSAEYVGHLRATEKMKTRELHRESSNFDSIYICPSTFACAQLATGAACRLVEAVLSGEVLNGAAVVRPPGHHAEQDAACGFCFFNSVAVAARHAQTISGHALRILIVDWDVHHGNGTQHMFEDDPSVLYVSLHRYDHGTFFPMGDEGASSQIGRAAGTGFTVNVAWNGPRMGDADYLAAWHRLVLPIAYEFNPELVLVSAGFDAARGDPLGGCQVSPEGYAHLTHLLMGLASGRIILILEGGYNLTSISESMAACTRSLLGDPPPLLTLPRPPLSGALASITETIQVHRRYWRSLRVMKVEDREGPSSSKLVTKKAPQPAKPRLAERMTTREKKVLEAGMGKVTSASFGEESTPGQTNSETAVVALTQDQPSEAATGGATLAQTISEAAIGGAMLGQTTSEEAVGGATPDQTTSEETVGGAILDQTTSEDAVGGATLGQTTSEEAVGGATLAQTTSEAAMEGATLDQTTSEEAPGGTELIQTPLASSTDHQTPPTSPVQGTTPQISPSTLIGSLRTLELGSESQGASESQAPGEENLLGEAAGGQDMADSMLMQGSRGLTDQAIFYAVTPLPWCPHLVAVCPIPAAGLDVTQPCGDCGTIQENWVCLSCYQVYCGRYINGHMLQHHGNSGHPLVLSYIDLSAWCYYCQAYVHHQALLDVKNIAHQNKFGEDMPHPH
Procedure, shortened: as §1

T2 sequence (Q13547 whole entry): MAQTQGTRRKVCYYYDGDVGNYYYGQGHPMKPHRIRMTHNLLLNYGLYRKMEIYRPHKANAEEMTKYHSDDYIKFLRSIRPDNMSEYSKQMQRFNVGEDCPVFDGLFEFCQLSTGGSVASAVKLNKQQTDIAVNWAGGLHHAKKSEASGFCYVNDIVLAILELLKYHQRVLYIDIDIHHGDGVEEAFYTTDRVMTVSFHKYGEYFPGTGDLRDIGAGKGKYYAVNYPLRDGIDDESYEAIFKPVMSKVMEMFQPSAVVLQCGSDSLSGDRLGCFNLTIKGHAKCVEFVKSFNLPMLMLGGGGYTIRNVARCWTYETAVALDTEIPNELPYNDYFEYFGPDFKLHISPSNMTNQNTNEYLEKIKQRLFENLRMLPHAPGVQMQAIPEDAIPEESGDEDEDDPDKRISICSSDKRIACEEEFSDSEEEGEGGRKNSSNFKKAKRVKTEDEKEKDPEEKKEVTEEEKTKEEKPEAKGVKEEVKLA
T1 sequence (Q9UKV0 whole entry, species assumed): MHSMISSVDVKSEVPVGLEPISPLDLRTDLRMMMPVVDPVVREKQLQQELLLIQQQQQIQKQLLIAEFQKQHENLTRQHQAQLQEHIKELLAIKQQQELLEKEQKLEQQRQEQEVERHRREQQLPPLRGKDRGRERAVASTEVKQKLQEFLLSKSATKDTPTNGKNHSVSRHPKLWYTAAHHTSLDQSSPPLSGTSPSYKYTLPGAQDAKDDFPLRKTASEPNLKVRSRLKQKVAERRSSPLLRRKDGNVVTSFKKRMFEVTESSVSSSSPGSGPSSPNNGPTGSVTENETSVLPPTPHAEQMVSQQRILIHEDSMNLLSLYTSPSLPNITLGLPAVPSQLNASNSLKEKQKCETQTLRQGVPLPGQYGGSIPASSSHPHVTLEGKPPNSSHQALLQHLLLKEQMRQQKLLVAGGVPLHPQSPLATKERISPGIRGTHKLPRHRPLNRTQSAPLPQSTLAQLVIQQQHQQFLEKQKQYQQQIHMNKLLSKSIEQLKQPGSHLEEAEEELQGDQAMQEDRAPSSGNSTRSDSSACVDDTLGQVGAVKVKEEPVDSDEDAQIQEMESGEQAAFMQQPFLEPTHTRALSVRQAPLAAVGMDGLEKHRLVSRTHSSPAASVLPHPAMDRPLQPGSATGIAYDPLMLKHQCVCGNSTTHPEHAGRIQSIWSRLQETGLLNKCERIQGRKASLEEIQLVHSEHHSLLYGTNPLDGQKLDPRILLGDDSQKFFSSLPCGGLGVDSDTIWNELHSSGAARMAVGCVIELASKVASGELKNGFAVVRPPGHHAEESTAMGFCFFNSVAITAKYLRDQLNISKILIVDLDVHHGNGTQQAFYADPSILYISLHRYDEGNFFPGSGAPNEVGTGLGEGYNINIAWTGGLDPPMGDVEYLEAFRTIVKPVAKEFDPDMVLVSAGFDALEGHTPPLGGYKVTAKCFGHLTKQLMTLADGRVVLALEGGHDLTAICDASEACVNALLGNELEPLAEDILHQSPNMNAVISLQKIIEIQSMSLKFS

| Compound | inhibition at 1 µM (HDAC9 enzyme) [%] | inhibition at 1 µM (HDAC1 enzyme) [%] | inhibition at 1 µM (HDAC6 enzyme) [%] | HDAC1 inhibitory rate (%) (1 μM) (HDAC1 enzyme; 1 µM) |
| --- | --- | --- | --- | --- |
| O=C(Cc1ccc(F)cc1)N1CCC(N2Cc3ncc(-c4noc(C(F)(F)F)n4)cc3C2=O)C1 (stereo not drawn) [Example 74, 6-(1-((4-fluorophenyl)acetyl)pyrrolidin-3-yl)-3-(5-(trifluoromethyl)-1,2,4-oxadiazol-3-yl)-6,7-dihydro-5H-pyrrolo[3,4-b]pyridin-5-one] | 90 | 33 | 86 |  |
| O=C1C[C@](Cc2ccccc2)(N2Cc3ccc(-c4noc(C(F)(F)F)n4)cc3C2=O)CN1 [Example 61, 2-((3S)-3-benzyl-5-oxopyrrolidin-3-yl)-6-(5-(trifluoromethyl)-1,2,4-oxadiazol-3-yl)isoindolin-1-one] | 93 | 41 | 99 |  |
| O=C(Cc1ccc(F)cc1)N1CC(N2Cc3ncc(-c4noc(C(F)(F)F)n4)cc3C2=O)C1 [Example 77, 6-(1-((4-fluorophenyl)acetyl)azetidin-3-yl)-3-(5-(trifluoromethyl)-1,2,4-oxadiazol-3-yl)-6,7-dihydro-5H-pyrrolo[3,4-b]pyridin-5-one] | 90 | 30 | 92 |  |
| CC(=O)N1C[C@@H](N2Cc3ccc(-c4noc(C(F)(F)F)n4)cc3C2=O)[C@H](c2ccccc2)C1 (relative stereo) [Example 4, trans-2-(1-acetyl-4-phenylpyrrolidin-3-yl)-6-(5-(trifluoromethyl)-1,2,4-oxadiazol-3-yl)isoindolin-1-one] | 96 | 69 | 99 |  |
| O=C(N[C@@H]1CCCC[C@H]1N1Cc2ccc(-c3noc(C(F)(F)F)n3)cc2C1=O)c1cocn1 [Example 103, N-((1R,2R)-2-(1-oxo-6-(5-(trifluoromethyl)-1,2,4-oxadiazol-3-yl)-1,3-dihydro-2H-isoindol-2-yl)cyclohexyl)-1,3-oxazole-4-carboxamide] | 55 | 14 | 102 |  |
| O=C(N[C@@H]1CCCC[C@H]1N1Cc2ccc(-c3noc(C(F)(F)F)n3)cc2C1=O)C1CCCCCO1 (stereo partly drawn) [Example 119, N-((1R,2R)-2-(1-oxo-6-(5-(trifluoromethyl)-1,2,4-oxadiazol-3-yl)-1,3-dihydro-2H-isoindol-2-yl)cyclohexyl)oxepane-2-carboxamide] | 38 |  | 100 | 4 |
| O=C(c1ccccc1)N1CC(N2Cc3ncc(-c4noc(C(F)(F)F)n4)cc3C2=O)C1 [Example 76, 6-(1-benzoylazetidin-3-yl)-3-(5-(trifluoromethyl)-1,2,4-oxadiazol-3-yl)-6,7-dihydro-5H-pyrrolo[3,4-b]pyridin-5-one] | 89 | 31 | 85 |  |
| O=C(N[C@@H]1CCCC[C@H]1N1Cc2ccc(-c3noc(C(F)(F)F)n3)cc2C1=O)C1CCC1 [Example 97, N-((1R,2R)-2-(1-oxo-6-(5-(trifluoromethyl)-1,2,4-oxadiazol-3-yl)-1,3-dihydro-2H-isoindol-2-yl)cyclohexyl) cyclobutanecarboxamide] | 59 | 14 | 99 |  |

Second part, the compound after the results:

| inhibition at 1 µM (HDAC9 enzyme) [%] | inhibition at 1 µM (HDAC1 enzyme) [%] | inhibition at 1 µM (HDAC6 enzyme) [%] | HDAC1 inhibitory rate (%) (1 μM) (HDAC1 enzyme; 1 µM) | Compound |
| --- | --- | --- | --- | --- |
| 59 | 10 | 100 |  | O=C(CCC(F)F)N[C@@H]1CCCC[C@H]1N1Cc2ccc(-c3noc(C(F)(F)F)n3)cc2C1=O [Example 126, 4,4-difluoro-N-((1R,2R)-2-(1-oxo-6-(5-(trifluoromethyl)-1,2,4-oxadiazol-3-yl)-1,3-dihydro-2H-isoindol-2-yl)cyclohexyl)butanamide] |
| 43 | 6 | 96 |  | O=C(NC1COC1)N[C@@H]1CCCC[C@H]1N1Cc2ccc(-c3noc(C(F)(F)F)n3)cc2C1=O [Example 165, 1-oxetan-3-yl-3-((1R,2R)-2-(1-oxo-6-(5-(trifluoromethyl)-1,2,4-oxadiazol-3-yl)-1,3-dihydro-2H-isoindol-2-yl)cyclohexyl)urea] |
| 59 | 13 | 99 |  | O=C(N[C@H]1CCOC[C@@H]1N1Cc2ccc(-c3noc(C(F)(F)F)n3)cc2C1=O)[C@H]1CC1(F)F [Example 202, (1R)-2,2-difluoro-N-((3R,4S)-3-(1-oxo-6-(5-(trifluoromethyl)-1,2,4-oxadiazol-3-yl)-1,3-dihydro-2H-isoindol-2-yl)tetrahydro-2H-pyran-4-yl)cyclopropanecarboxamide] |
| 85 | 35 | 96 |  | CC1(C(=O)N[C@@H]2CCCC[C@@H]2N2Cc3ccc(-c4noc(C(F)(F)F)n4)cc3C2=O)COC1 (relative stereo) [Example 200, 3-methyl-N-(cis-2-(1-oxo-6-(5-(trifluoromethyl)-1,2,4-oxadiazol-3-yl)-1,3-dihydro-2H-isoindol-2-yl)cyclohexyl)oxetane-3-carboxamide] |
| 49 | 7 | 99 |  | O=C(N[C@@H]1CCOC[C@H]1N1Cc2ccc(-c3noc(C(F)(F)F)n3)cc2C1=O)[C@@H]1CC1(F)F [Example 172, (1S)-2,2-difluoro-N-((3S,4R)-3-(1-oxo-6-(5-(trifluoromethyl)-1,2,4-oxadiazol-3-yl)-1,3-dihydro-2H-isoindol-2-yl)tetrahydro-2H-pyran-4-yl)cyclopropanecarboxamide] |
| 82 | 39 | 94 |  | O=C1c2ccc(-c3noc(C(F)(F)F)n3)cc2CN1[C@@H]1CCNC[C@H]1c1ccccc1 (relative stereo) [Example 136, trans-2-(3-phenylpiperidin-4-yl)-5-(5-(trifluoromethyl)-1,2,4-oxadiazol-3-yl)isoindolin-1-one] |
| 55 | 5 | 99 |  | O=C(N[C@@H]1CCCC[C@H]1N1Cc2ccc(-c3noc(C(F)(F)F)n3)cc2C1=O)C1CC1F (stereo partly drawn) [Example 132, 2-fluoro-N-((1R,2R)-2-(1-oxo-6-(5-(trifluoromethyl)-1,2,4-oxadiazol-3-yl)-1,3-dihydro-2H-isoindol-2-yl)cyclohexyl)cyclopropanecarboxamide] |
| 34 | 4 | 99 |  | O=C(N[C@@H]1CCCC[C@H]1N1Cc2ccc(-c3noc(C(F)(F)F)n3)cc2C1=O)N1CCCC1 [Example 158, N-((1R,2R)-2-(1-oxo-6-(5-(trifluoromethyl)-1,2,4-oxadiazol-3-yl)-1,3-dihydro-2H-isoindol-2-yl)cyclohexyl)pyrrolidine-1-carboxamide] |
| 54 | -6 | -3 |  | N[C@@H]1CCC[C@H]1N1Cc2ccc(-c3noc(C(F)(F)F)n3)cc2C1=O [Example 142, 2-((1R,2R)-2-aminocyclopentyl)-6-(5-(trifluoromethyl)-1,2,4-oxadiazol-3-yl)isoindolin-1-one] |
| 52 | 5 | 99 |  | O=C(N[C@@H]1CCOC[C@H]1N1Cc2ccc(-c3noc(C(F)(F)F)n3)cc2C1=O)C1CCOC1 (stereo partly drawn) [Example 205, N-((3S,4R)-3-(1-oxo-6-(5-(trifluoromethyl)-1,2,4-oxadiazol-3-yl)-1,3-dihydro-2H-isoindol-2-yl)tetrahydro-2H-pyran-4-yl)tetrahydrofuran-3-carboxamide] |
